Measured values from patent US10077290B2, “Stabilized antiviral fusion helices” (priority 2011, dated 2018).
Entries after “also recorded” stand apart in the source; their conditions may differ. Read-outs that look alike come from different tables or passages of the source. Bridges are numbered along the chain shown (N, C = ends). Where no end group is shown, it is not given here. [ ]: non-standard residue; d: D form. R8 = C=CCCCCCC[C@@](C)(N)C(=O)O; S5 = C=CCCC[C@](C)(N)C(=O)O

How the values were obtained:
rgRSV [1] = experiment: rgRSV in vitro infectivity assay in Vero cells; format: cell-based, Respiratory Syncytial Virus (RSV); conditions: for inhibition of RSV infection (anti-RSV activity): rgRSV 0.1 MOI, 24 hour post-infection; for RSV infection, peptide administered before viral exposure (prophylactically): SAHF for 1 hour followed by rgRSV 0.1 MOI; for RSV infection, peptide administered after viral exposure: rgRSV 0.1 MOI for 1 hour followed by SAHF
Procedure: To test the capacity of SAHF peptides to block RSV infection of culture cells, an in vitro infectivity assay was performed in the presence and absence of SAHF peptides. Briefly, Vero cells plated in 48-well format (60,000 cells/well) were exposed to rgRSV only (0.1 MOI) and SAHF peptides, followed by imaging 24 hour post-infection to quantitate infectivity by confocal microscopy and FACS analysis Annexin V staining was also performed on harvested Vero cells to distinguish live from dead cells when calculating percent GFP positive cells.
(§1) Vero cells plated in 48-well format (60,000 cells/well) were exposed to (a) rgRSV only (0.1 MOI); (b) rgRSV for 1 hour followed by treatment with SAHF; and (c) SAHF for 1 hour followed by rgRSV infection, and then imaged 24 hour post-infection to quantitate infectivity by confocal microscopy and FACS analysis.

RSV 5-helix bundle = experiment: Competition fluorescence polarization assay (FPA) against FITC-RSV HR2 (488-522); format: binding, Respiratory Syncytial Virus (RSV)
Procedure: To assess binding activity toward the RSV fusogenic bundle, competition FPA was performed using recombinant five-helix bundle protein, fluorescent HR2 peptide (488-522), and serial dilutions of SAHF peptides shown in Table 2. More specifically, a 5-helix bundle protein was designed containing five of the six helices that comprise the core of the RSV-F trimer of hairpins, connected by short peptide linkers in accordance with the design of the gp41 5-helix bundle (Root et al., Science, 291:884-888, 2001). Because the 5-helix bundle lacks the third HR2 helix but is otherwise soluble, stable, and helical, incorporation of the sixth HR2 peptide in the form of FITC-RSV (488-522) yielded a stable complex, which can be competed with acetylated SAH-RSV peptides to gauge relative binding affinity.
FPA assays were used to measure and compare the relative binding activities of distinct SAHF constructs for the RSV fusion bundle. First, FITC-RSV HR2 peptide (488-522) is mixed with a serial dilution of recombinant 5-helix bundle protein to generate a binding isotherm. A fixed concentration of FITC-peptide and protein at ˜EC75 was then incubated with a serial dilution of acetylated SAHF peptide to generate competition curves for comparative analysis. Fluorescence polarization (mP units) was measured on a SpectraMax fluorimeter and IC50 values calculated by nonlinear regression analysis of competition curves using Prism software (Graphpad).

RSV-A2 [2] = experiment: RSV-A2 lung infection of BALB/c mice after prophylactic intranasal peptide; format: in vivo
Procedure: One hour post treatment, three groups of mice were inoculated with a single dose of RSV-A2 at 1×10^6 pfu/mouse. Peptide dosing and viral inoculation was repeated 16 hours post-infection. The fourth group was treated with volume-equivalent vehicle and mock-infected. Two mice from each group were sacrificed 4 days after the second infection and left lung lobes harvested after 1% paraformaldehyde perfusion, followed by cryopreservation in OCT. Sections (5 μm) were treated with 1:1000 dilution of rabbit anti-RSV polyclonal antibody (Millipore) overnight followed by anti-rabbit antibody conjugated to Alexa Fluor 555 (1:400) (red) (Molecular Probes) for 1 h. Sections were washed and mounted with medium containing DAPI (blue) and viewed with an Olympus fluorescent microscope (FIG. 17A; original magnification 20×). Image J analysis was performed on the acquired images and the percentage RSV-positive cells (red) of total DAPI-positive cells (blue) determined from 8 images (4 sections) per mice (FIG. 17B; .error bars represent mean+/−SEM; *, p<0.0001). Four days after the second infection, bronchoalveolar lavage (BAL) was performed on one mouse from each group and BAL supernatant used to determine the viral titers by plaque assay on Hep-2 cells (FIG. 17C; error bars represent mean+/−SEM of plaques counted per in vivo specimen; *, p<0.05). Also at four days after the second infection, cranial and caudal lobes of the right lung from two mice per group were snap frozen on dry ice. A lung homogenate was generated from the cranial lobe and supernatant subjected to viral titer determination (log 10 pfu/ml) (FIG. 17D; error bars represent mean+/−SEM; *, p<0.05). Total RNA was isolated from the caudal lobe of the right lung and quatitative RT-PCR was performed for the RSV-N gene. The results of this analysis are presented in FIG. 17E in which the bar graphs represent the RSV-N gene expression normalized to the mock-infected tissue.

RgRSV [3] = experiment: Intranasal RgRSV infection of BALB/c mice after intranasal peptide; format: in vivo; conditions: RgRSV-infected, 125 μM intranasally
Procedure: One hour post treatment, three groups of mice were inoculated with a single dose of RgRSV at 1×10^6 pfu/mouse, with the fourth group receiving a mock inoculation. Mice were sacrificed at 24 hours post infection and the noses harvested, sectioned, stained with DAPI and imaged with an Olympus fluorescent microscope (FIG. 16A; original magnification 20×). Image J analysis was performed on the acquired images (FIG. 16B) and average GFP positive (green) and DAPI positive (blue) cells were calculated from eight images (4 sections) per mouse (bars represent percent GFP positive of total DAPI-positive cells present in the images and error bars represent mean+/−SEM. *, p<0.001). FIG. 16C depicts the results of hematoxylin and eosin staining of the nose sections (original magnification 20×, insets 100×) In FIG. 16C black arrows highlight thickened mucosa.

rgRSV [4] = experiment: Virus-induced syncytia formation in Vero cells; format: cell-based, Respiratory Syncytial Virus (RSV); conditions: administered before or after viral exposure
Procedure: as §1

RSV-A2 [5] = experiment: RSV-A2 infection of A549 cells at 1 MOI, Hep-2 plaque assay titers; format: cell-based, Respiratory Syncytial Virus (RSV); conditions: 5 μM peptide
Procedure: In this study A549 cells were plated in a 24 well plate at 30,000 cells/well. The following day, the cells were treated with 5 μM of the indicated stapled SAHF peptide or volume-equivalent DMSO vehicle, followed by RSV-A2 infection at 1 MOI. The cells were infected for 2 h, and the infection medium replaced with 400 μl of DMEM containing 5% FBS and 5 μM of the indicated stapled SAHF peptide. Cells were harvested along with the supernantant 24 h post infection, vortexed for 10 sec, and the supernatant collected, leaving the cell pellet behind. Hep-2 cells were plated on a 24 well plate at 60,000 cells/well the day before use. Plaque assay was performed on Hep-2 cells using the collected supernatant and titers determined at 5 days post infection of Hep-2 cells. The results of this analysis are shown in FIG. 14 in which titers are shown as log 10 pfu/ml and the values represent the mean+/−SEM for two independent experiments (***p<0.001; ****p<0.0001).

rgRSV [6] = experiment: Intranasal peptide followed by transnasal rgRSV infection in mice; format: in vivo; conditions: 250 μM, 25 μL intranasally four hours before rgRSV, 20 hours post-infection
Procedure: To examine the capacity of SAH-RSV peptides to inhibit RSV infection in vivo, vehicle or SAH-RSV peptide (250 μM, 25 μL) was administered to anesthetized mice intranasally followed by transnasal infection with rgRSV (5×10^5 PFU, 36 μL) four hours later. Mice were sacrificed 20 hours post-infection, and the nasal epithelium cryosectioned, stained with DAPI, and imaged using a fluorescent microscope.

[7] = Circular dichroism (CD) alpha-helicity; format: physicochemical; conditions: aqueous solution (pH 7, 35° C.)
Procedure: Compounds are dissolved in an aqueous solution (e.g. 5 mM potassium phosphate solution at pH 7, or distilled H2O, to concentrations of 25-50 μM). Circular dichroism (CD) spectra are obtained on a spectropolarimeter (e.g., Jasco J-710, Aviv) using standard measurement parameters (e.g. temperature, 20° C.; wavelength, 190-260 nm; step resolution, 0.5 nm; speed, 20 nm/sec; accumulations, 10; response, 1 sec; bandwidth, 1 nm; path length, 0.1 cm). The α-helical content of each peptide is calculated by dividing the mean residue ellipticity by the reported value for a model helical decapeptide (Yang et al., Methods Enzymol. 130:208 (1986)).
To document secondary structure improvements of hydrocarbon-stapled peptides, circular dichroism (CD) spectra was recorded and analyzed on a Model 410 Aviv Biomedical spectrometer (Walensky, supra; Bird, supra). […] The target peptide concentration for CD studies is 25-50 μM in 50 mM potassium phosphate (pH 7.5) or Milli-Q deionized water, and exact concentrations are confirmed by quantitative AAA of two CD sample dilutions. […] After conversion to mean residue ellipticity, percent α-helicity can be calculated using the equation, % helicity=100×[θ]222/max[θ]222, where max[θ]222=−40,000×[1−(2.5/number of amino acid residues)]. […]

## F8ASISQVXEKINQSLAFIRKSDELLHNVNAGKST (Ac-F[R8]ASISQV[S5]EKINQSLAFIRKSDELLHNVNAGKST; staple 2-9) [SAHF-G]
rgRSV [1]
  inhibition of RSV infection (anti-RSV activity): superior
RSV 5-helix bundle
  5-helix bundle binding activity: superior 5-helix bundle binding

## FD8SISQVNXKINQSLAFIRK8DELLHNXNAGKST (FDXSISQVNXKINQSLAFIRKXDELLHNXNAGKST; two hydrocarbon staples; MOD_RES (3)..(3) Any amino acid; (3)..(10) Crosslink between residues; MOD_RES (10)..(10) Any amino acid; MOD_RES (22)..(22) Any amino acid; (22)..(29) Crosslink between residues; MOD_RES (29)..(29) Any amino acid) [SAHF-H, L, control]
RSV-A2 [2]; 125 μM intranasally, dosing and inoculation repeated at 16 hours, 4 days after second infection
  RSV-A2 lung infection, by each measure (RSV-positive cells, BAL and lung homogenate titers, RSV-N gene): no effect
RgRSV [3]
  inflammation in nose sections (hematoxylin and eosin staining): Inflammation is noted

## FD8SISQVNXKINQSLAFIRKSDELLHNVNAGKST (FDXSISQVNXKINQSLAFIRKSDELLHNVNAGKST; hydrocarbon staple; MOD_RES (3)..(3) Any amino acid; (3)..(10) Crosslink between residues; MOD_RES (10)..(10) Any amino acid) [SAHF-H]
rgRSV [1]
  RSV infection, peptide administered before viral exposure (prophylactically): inhibited RSV infection; also recorded: blocks RSV infection of Vero cells
  RSV infection, peptide administered after viral exposure: inhibited RSV infection; also recorded: blocks RSV infection of Vero cells
  inhibition of RSV infection (anti-RSV activity): superior
RSV 5-helix bundle
  5-helix bundle binding activity: superior 5-helix bundle binding
rgRSV [4]
  virus-induced syncytia formation: blocked syncytial formation; also recorded: inhibits virus-induced syncytia formation

## FDA8ISQVNEXINQSLAFI8KSDELLXNVNAGKST (Ac-FDA[R8]ISQVNE[S5]INQSLAFI[R8]KSDELL[S5]NVNAGKST; staple 4-11, 20-27) [SAHF-I, J]
RSV-A2 [5]
  RSV-A2 infection (viral titers): inhibit RSV-A2 infection of A549 cells

## FDA8SQVVNEXINQSLAFIRKSDELLHNVNAGKST [SAHF-I]
rgRSV [1]
  inhibition of RSV infection (anti-RSV activity): superior
RSV 5-helix bundle
  5-helix bundle binding activity: superior 5-helix bundle binding

## FDASISQVNEKINQSLAFI8KSDELLXNVNAGKST (Ac-FDASISQVNEKINQSLAFI[R8]KSDELL[S5]NVNAGKST; staple 20-27) [SAHF-J]
rgRSV [1]
  inhibition of RSV infection (anti-RSV activity): superior
RSV 5-helix bundle
  5-helix bundle binding activity: superior 5-helix bundle binding

## FDASISQVNEKINQSLAFIR8SDELLHXVNAGKST (Ac-FDASISQVNEKINQSLAFIR[R8]SDELLH[S5]VNAGKST; staple 21-28) [SAHF-K]
rgRSV [1]
  inhibition of RSV infection (anti-RSV activity): superior
RSV 5-helix bundle
  5-helix bundle binding activity: superior 5-helix bundle binding

## FDASISQVNEKINQSLAFIRK8DELLHNXNAGKST [SAHF-L, negative control]
rgRSV [1]
  RSV infection, peptide administered before viral exposure (prophylactically): little to no effect
  RSV infection, peptide administered after viral exposure: little to no effect
  inhibition of RSV infection (anti-RSV activity): nor suppressed RSV infection in vitro
rgRSV [1]; listed as SAH-RSV(L)
  inhibition of RSV infection (anti-RSV activity): no activity
RSV 5-helix bundle
  5-helix bundle binding activity: no binding activity; also recorded: did not bind
RSV 5-helix bundle; listed as SAH-RSV(L)
  5-helix bundle binding activity: poor binding activity; also recorded: incapable of binding the 5-helix bundle
rgRSV [4]
  virus-induced syncytia formation: little to no effect
rgRSV [6]
  RSV infection of nasal mucosa (GFP-positive cells): no in vivo activity

## FDASISQVNEKINQSLAFIRKSDELLHNVNAGKST [RSV HR2 (488-522)WT, reference compound]
RSV-A2 [2]; caudal lobe of right lung
  RSV-N gene expression in lung (quantitative RT-PCR): no observed effect
[7]
  percent α-helicity: ~23%

## FDAXISQXNEKINQSLAFIRKSDELLHNVNAGKST (Ac-FDA[S5]ISQ[S5]NEKINQSLAFIRKSDELLHNVNAGKST; staple 4-8) [SAHF-C]
rgRSV [1]
  inhibition of RSV infection (anti-RSV activity): suppressed RSV infection in vitro
RSV 5-helix bundle
  5-helix bundle binding activity: bound the 5-helix bundle
rgRSV [6]
  RSV infection of nasal mucosa (GFP-positive cells): markedly suppressed RSV infection; also recorded: blocks trans-nasal RSV infection in mice
